According to PubChem BioAssay AID1159611:

Target: Retinoic acid receptor RXR-alpha (Homo sapiens) (UniProt P19793)
Assay: RXRalpha binders by radioligand displacement, dose response, biochemical, [3H]9-cis-retinoic acid (AID 1159611)
Details: RXRalpha [3H]9-cis-retinoic acid displacement binding

Chain of Retinoic acid receptor RXR-alpha (Homo sapiens) (P19793 whole entry, looked up): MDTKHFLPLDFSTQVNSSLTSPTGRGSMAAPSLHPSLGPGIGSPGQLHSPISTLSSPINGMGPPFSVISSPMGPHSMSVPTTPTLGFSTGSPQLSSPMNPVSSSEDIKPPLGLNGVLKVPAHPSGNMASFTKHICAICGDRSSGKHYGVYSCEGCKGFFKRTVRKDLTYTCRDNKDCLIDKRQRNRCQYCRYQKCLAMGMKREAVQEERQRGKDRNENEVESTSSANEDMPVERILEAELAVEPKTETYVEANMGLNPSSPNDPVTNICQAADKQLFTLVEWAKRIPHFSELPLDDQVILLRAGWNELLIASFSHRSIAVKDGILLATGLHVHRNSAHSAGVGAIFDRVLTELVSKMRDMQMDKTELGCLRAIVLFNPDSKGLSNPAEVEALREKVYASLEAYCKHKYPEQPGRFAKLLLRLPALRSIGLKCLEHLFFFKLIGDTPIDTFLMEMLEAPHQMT

CC1=C[C@H](O)CC(C)(C)[C@H]1/C=C/C(C)=C/C=C/C(C)=C/C=C/C=C(C)/C=C/C=C(C)/C=C/C1=C(C)C[C@@H](O)CC1(C)C
IC50: 5.74 µM
